According to patent US20250002493A1, “PYRIDONE COMPOUND AND PREPARATION METHOD THEREFOR, PHARMACEUTICAL COMPOSITION AND USE” (NANJING CHINA-AUSTRALIA INSTITUTE OF TRANSLATIONAL MEDICINE …, priority 2022, published 2025):

How the values were obtained:
[1] = target: BIR3 domain of human cIAP1 (residues 255-364) (Homo sapiens (Human), UniProt Q13490); experiment: Fluorescence polarization competitive binding to cIAP1 BIR3; conditions: FP, peptide probe 5 nM, cIAP1 BIR3 5 nM, 1 hour room temperature
Protocol: (§1) The binding affinity of the compounds provided by the present invention to IAP proteins was determined using a fluorescence polarization method (Nikolovska-Colesak et al, Anal. Biochem. 2004, 332:261-73). The recombinant BIR3 domains of human XIAP (residues 238-358), human cIAP1 (residues 255-364) and human cIAP2 (residues 236-342) fusing GST-tags were expressed in E. coli and purified using glutathione agarose 4B affinity chromatography and gel filtration chromatography. A 5-Fam fluorescently modified peptide probe (AbuRPFK(5-Fam)-NH2) was used to test the competitive binding ability of the compounds to the BIR3 domains of XIAP, cIAP1 and cIAP2. The peptide probe (5 nM), XIAP BIR3 (30 nM) or cIAP1 BIR3 (5 nM) or cIAP2 BIR3 (10 nM), and serial diluted compounds were mixed in a test buffer (100 mM potassium phosphate pH 7.5, 100 μg/ml bovine gamma globulin, 0.02% sodium azide, and 1 mM DTT). After incubating the samples at room temperature for 1 hour, the fluorescence polarization values were read using a Tecan microplate reader (FP excitation wavelength 485 nm, […] wavelength 530 nm). The IC50 value was obtained by fitting the curve using nonlinear least square regression with the Graphpad Prism software. The inhibition constant Ki, values were calculated using the Equation Ki, [I]50/([L]50/Kd+[P]0/Kd+1).

[2] = target: BIR3 domain of human cIAP2 (residues 236-342) (Homo sapiens (Human), UniProt Q13489); experiment: Fluorescence polarization competitive binding to cIAP2 BIR3; conditions: FP, peptide probe 5 nM, cIAP2 BIR3 10 nM, 1 hour room temperature
Protocol: as §1

[3] = target: BIR3 domain of human XIAP (residues 238-358) (Homo sapiens (Human), UniProt P98170); experiment: Fluorescence polarization competitive binding to XIAP BIR3; conditions: FP, peptide probe 5 nM, XIAP BIR3 30 nM, 1 hour room temperature
Protocol: as §1

[4] = system: MDA-MB-231 human breast cancer cells; experiment: WST-8 cell proliferation assay, MDA-MB-231; format: cell-based; conditions: 72 hours
Protocol: (§2) The effects of the compounds provided by the present invention on the proliferation of different cancer cell lines were tested using the WST-8 assay kit. This method is based on the reduction of WST-8 by dehydrogenase in live cells to form a highly water-soluble yellow Formazan dye. Cells were seeded in a 96-well plate and cultured with the test compounds at 37° C. under 5% CO2 for 72 hours. Afterwards, 10% (v/v) WST-8 was added, and the samples were incubated for an additional 2-3 hours. The absorbance of the samples was measured at 450 nm using a Tecan microplate reader, and the concentration of the compound that inhibited 50% of cell proliferation (IC50, nM) was calculated. The activity of the compounds provided by the present invention was determined in three cancer cell lines: MDA-MB-231 human breast cancer cells, SK-OV-3 human ovarian cancer cells, and PANC1 human pancreatic cancer.

[5] = system: SK-OV-3 human ovarian cancer cells; experiment: WST-8 cell proliferation assay, SK-OV-3; format: cell-based; conditions: 72 hours, read-out: SKOV-3 IC50
Protocol: as §2

[6] = system: PANC1 human pancreatic cancer; experiment: WST-8 cell proliferation assay, PANC1; format: cell-based; conditions: PANC-1, 72 hours
Protocol: as §2

MDA-MB-231 cancer cells = experiment: Inhibitor-induced apoptosis, flow cytometry with Annexin V and propidium iodide; format: cell-based, human; conditions: 3 hours
Protocol: After treating the cells with 10 nM and 100 nM concentrations of the compounds for 3 hours, the induction of apoptosis was analyzed using flow cytometry with Annexin V and propidium iodide staining.

Sequence of BIR3 domain of human cIAP1 (residues 255-364) (Q13490 255-364): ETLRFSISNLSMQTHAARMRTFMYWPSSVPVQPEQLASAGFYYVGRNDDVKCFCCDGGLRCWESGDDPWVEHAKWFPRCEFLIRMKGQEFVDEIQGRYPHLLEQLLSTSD
Sequence of BIR3 domain of human XIAP (residues 238-358) (P98170 238-358): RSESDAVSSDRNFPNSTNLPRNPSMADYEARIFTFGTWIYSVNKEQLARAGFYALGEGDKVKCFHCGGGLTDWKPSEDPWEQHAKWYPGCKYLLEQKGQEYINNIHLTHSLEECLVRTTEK
Sequence of BIR3 domain of human cIAP2 (residues 236-342) (Q13489 236-342): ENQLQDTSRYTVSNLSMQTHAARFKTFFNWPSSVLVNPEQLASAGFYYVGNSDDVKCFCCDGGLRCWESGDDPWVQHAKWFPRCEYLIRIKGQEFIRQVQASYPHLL

Structure (SMILES) | Ki [1] [nM] | Ki [2] [nM] | Ki [3] [nM] | IC50 [4] [nM] | IC50 [5] [nM] | IC50 [6] [nM] | Proportion of apoptotic cells (MDA-MB-231 cancer cells; Drug concentration 10 nM) [%] | Proportion of apoptotic cells (MDA-MB-231 cancer cells; Drug concentration 100 nM) [%]
CN[C@@H](C)C(=O)N[C@H](C(=O)N1CC(C)(C)c2cc(=O)n(Cc3ccc(F)cc3F)cc21)C(C)(C)C [Compound I-2-26] | 1.4 | 6.9 | 70.9 | 21 | 7 | 89 | 32 | 47
CN[C@@H](C)C(=O)N[C@H](C(=O)N1CCc2cc(=O)n(Cc3ccc(F)cc3F)cc21)C1CCCCC1 [Compound I-2-4] | 1.3 | 3.2 | 73.2 | 8 | 13 | 75 | 32 | 45
CN[C@@H](C)C(=O)N[C@H](C(=O)N1CCc2c1cc(Cc1ccc(F)cc1F)c(=O)n2CC(F)(F)F)C(C)(C)C [Compound I-3-8] | 1.3 | 2.1 | 7.1 | – | – | – | – | –
CN[C@@H](C)C(=O)N[C@H](C(=O)N1CCc2cc(=O)n(Cc3ccc(F)cc3F)cc21)C(C)(C)C [Compound I-2-20] | 1 | 1.8 | 21.5 | 3 | 1 | 33 | 39 | 53
CN[C@@H](C)C(=O)N[C@H](C(=O)N1CCc2[nH]c(=O)c(Cc3ccc(F)cc3)cc21)C(C)(C)C [Compound I-4-3] | 1 | 1.9 | 8.2 | – | – | – | – | –
CN[C@@H](C)C(=O)N[C@H](C(=O)N1CCc2[nH]c(=O)c(Cc3ccc(F)cc3)cc21)C1CCCCC1 [Compound I-4-1, (S)-N-((S)-1-cyclohexyl-2-(6-(4-fluorobenzyl)-5-oxo-2,3,4,5-tetrahydro-1H-pyrrolo[3,2-b]pyridine-1-yl)-2-oxyethyl)-2-(methylamino)propanamide] | 1.3 | 2.7 | 19.9 | 6 | 1 | 53 | 36 | 49
[2H]C([2H])([2H])N[C@@H](C)C(=O)N[C@H](C(=O)N1CC(C)(C)c2cc(=O)n(Cc3ccc(F)cc3F)cc21)C(C)(C)C [Compound I-2-28] | 1.9 | 6.7 | 185 | 20 | 23 | 124 | 29 | 47
CN[C@@H](C)C(=O)N[C@H](C(=O)N1CCc2cc(=O)n(Cc3ccc(F)cc3O)cc21)C(C)(C)C [Compound I-2-23] | 1 | 2.3 | 53.6 | 9 | 5 | 67 | 35 | 50
CN[C@@H](C)C(=O)N[C@H](C(=O)N1CC(C)(C)c2cc(=O)n(Cc3ccc(F)cc3F)cc21)C1CCCCC1 [Compound I-2-27] | 1.9 | 5.7 | 208 | 18 | 19 | 96 | 31 | 46
[2H]C([2H])([2H])N[C@@H](C)C(=O)N[C@H](C(=O)N1CCc2cc(=O)n(Cc3ccc(F)cc3F)cc21)C(C)(C)C [Compound I-2-22] | 0.8 | 1.5 | 21 | 3 | 2 | 34 | 38 | 52
[2H]C([2H])([2H])N[C@@H](C)C(=O)N[C@H](C(=O)N1CCc2cc(=O)n(Cc3ccc(F)cc3)cc21)C1CCCCC1 [Compound I-2-15] | 1 | 4 | 76.9 | 9 | 12 | 64 | – | –
[2H]C([2H])([2H])N[C@@H](C)C(=O)N[C@H](C(=O)N1CC(C)(C)c2cc(=O)n(Cc3ccc(F)cc3)cc21)C(C)(C)C [Compound I-2-29] | 3 | 12.7 | 568 | 29 | 32 | 165 | 20 | 42
CN[C@@H](C)C(=O)N[C@H](C(=O)N1CC(C)(C)c2c1cc(Cc1ccc(F)cc1F)c(=O)n2C)C(C)(C)C [Compound I-3-7] | 1.6 | 5.2 | 45.2 | – | – | – | – | –
CCn1c2c(cc(Cc3ccc(F)cc3F)c1=O)N(C(=O)[C@@H](NC(=O)[C@H](C)NC)C(C)(C)C)CC2 [Compound I-3-6] | 0.8 | 1.6 | 12.3 | – | – | – | – | –
CN[C@@H](C)C(=O)N[C@H](C(=O)N1CCc2cc(=O)n(Cc3ccc(F)cc3)cc21)C(C)(C)C [Compound I-2-11] | 0.7 | 1.7 | 31.4 | 5 | 4 | 38 | 35 | 48
CN[C@@H](C)C(=O)N[C@H](C(=O)N1CCc2c1cc(Cc1ccc(F)cc1F)c(=O)n2C)C(C)(C)C [Compound I-3-3] | 1.4 | 2.2 | 13.7 | 2 | 1 | 37 | 43 | 55
CN[C@@H](C)C(=O)N[C@H](C(=O)N1CCc2c1cc(Cc1ccc(F)cc1)c(=O)n2C)C1CCCCC1 [Compound I-3-1, (S)-N-((S)-1-cyclohexyl-2-(6-(4-fluorobenzyl)-4-methyl-5-oxo-2,3,4,5-tetrahydro-1H-pyrrolo[3,2-b]pyridine-1-yl)-2-oxyethyl)-2-(methylamino)propanamide] | 1.2 | 2.6 | 30.7 | 5 | 4 | 58 | 36 | 48
CN[C@@H](C)C(=O)N[C@H]1CN(C(=O)CC(C)C)CC[C@H]2CC[C@@H](C(=O)NC(c3ccccc3)c3ccccc3)N2C1=O [SM-406, reference compound] | – | 5.8 | 25.2 | 33 | 40 | 241 | 6 | 34
[2H]C([2H])([2H])N[C@@H](C)C(=O)N[C@H](C(=O)N1CCc2cc(=O)n(Cc3ccc(F)cc3F)cc21)C(C)(C)C [Compound I-2-35] | 1.2 | 2.6 | 33.4 | – | – | – | – | –
CN[C@@H](C)C(=O)N[C@H](C(=O)N1CCc2[nH]c(=O)c(Cc3ccc(F)cc3F)cc21)C(C)(C)C [Compound I-4-2] | 1.3 | 2.4 | 9.4 | 4 | 1 | 16 | 41 | 54
CN[C@@H](C)C(=O)N[C@H](C(=O)N1CC(C)(C)c2cc(=O)n(Cc3ccc(F)cc3)cc21)C(C)(C)C [Compound I-2-33] | 1.9 | 7.9 | 288 | 24 | 27 | 192 | 23 | 45
CN[C@@H](C)C(=O)N[C@H](C(=O)N1CC(C)(C)c2cc(=O)n(Cc3ccc(F)cc3O)cc21)C(C)(C)C [Compound I-2-32] | 2.2 | 10 | 343 | 28 | 29 | 189 | 21 | 43
C[C@H](N)C(=O)N[C@H](C(=O)N1CCc2cc(=O)n(Cc3ccc(F)cc3F)cc21)C(C)(C)C [Compound I-2-34] | 1.1 | 1.5 | 24.1 | – | – | – | – | –
